Test results from publication PMC7069944, “Amino acid levels determine metabolism and CYP450 function of hepatocytes and hepatoma cell lines” (Nature Communications, 2020).
Where “and” joins values, the source holds several entries; their conditions need not be identical. Equal entries are not always repeated.

Key:
[1] = test system: CYP3A4; assay: CYP3A4-dependent BFC metabolization (fluorometric probe); assay type: in vitro ADME, human; conditions: for BFC metabolisation: Figure 2B, replicate values; for BFC metabolisation (pmol/h/1000000cells): Figure 1D
Protocol: Urea concentrations in the medium were analyzed after 24 h of culture using the QuantiChromTM Urea Assay Kit (BioAssay Systems DIUR-500) according to the manufacturer’s instructions. […] Metabolization was assessed for 1 h and 4 h incubation times. […] The albumin secretion rate was quantified using the human albumin ELISA quantification kit (Bethyl) according to instructions provided in the kit.

[2] = test system: HC3X; assay: Repeated-exposure DILI training compounds, resazurin conversion, HC3X; conditions: HC3X AAGLY D40
Procedure, shortened: (§1)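 Viability by resazurin conversion, correlated with Cmax, was assessed after drug exposure in 384-well cultures of differentiated PSCs and of HepG2 (40,000 cells/well). Dosing began 8 h post-attachment, with untreated wells as negative control.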

[3] = test system: HepG2; assay: Repeated-exposure DILI training compounds, resazurin conversion, HepG2
Procedure, shortened: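 Hepatotoxicity prediction used a miniaturized 384-well differentiation setup, scoring viability through resazurin reduction relative to Cmax.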

[4] = test system: HLC; assay: Repeated-exposure DILI training compounds, resazurin conversion, HLC
Procedure, shortened: as §1

[5] = test system: HC6X; assay: Repeated-exposure DILI training compounds, resazurin conversion, HC6X
Procedure, shortened: as §1

Structure (SMILES): O=c1cc(C(F)(F)F)c2ccc(OCc3ccccc3)cc2o1 [BFC, 7-benzyloxy-4-trifluoromethylcoumarin]
- relative BFC metabolsiation (compared to PHH 0h) ([1]; HC3X AAGLY D20): 13.5398 and 11.6179 and 10.8677
- relative BFC metabolsiation (compared to PHH 0h) ([1]; HC3X AAGLY D40): 91.111 and 105.714 and 91
- relative BFC metabolsiation (compared to PHH 0h) ([1]; HC3X AAGLY D50): 143.333 and 136.667 and 101.19
- BFC metabolisation ([1]; HC3X D20): 21.4494 pmol/h/1000000 cells and 25.0015 pmol/h/1000000 cells and 28.2425 pmol/h/1000000 cells
- relative BFC metabolsiation (compared to PHH 0h) ([1]; HC3X LDM D20): 1.9009 and 2.216 and 2.503
- relative BFC metabolsiation (compared to PHH 0h) ([1]; HLC AAGLY D20): 5.305 and 4.4 and 6.066
- BFC metabolisation (pmol/h/1000000cells) ([1]; HLC D20): 11.7761 pmol/h/1000000cells and 11.0043 pmol/h/1000000cells and 15.6069 pmol/h/1000000cells
- BFC metabolisation ([1]; HLC D20): 11.7761 pmol/h/1000000 cells and 11.0043 pmol/h/1000000 cells and 15.6069 pmol/h/1000000 cells
- relative BFC metabolsiation (compared to PHH 0h) ([1]; HLC LDM D20): 1.044 and 0.9752 and 0.9879
- relative BFC metabolsiation (compared to PHH 0h) ([1]; HLC LDM D40): 4.464 and 8.743 and 7.646
- relative BFC metabolsiation (compared to PHH 0h) ([1]; PHH 0h): 101.025 and 82.5131 and 116.462
- BFC metabolisation (pmol/h/1000000cells) ([1]; PHH 0h): 1139.95 pmol/h/1000000cells and 931.065 pmol/h/1000000cells and 1314.14 pmol/h/1000000cells
- BFC metabolisation ([1]; PHH 0h): 1139.95 pmol/h/1000000 cells and 1031.07 pmol/h/1000000 cells and 1214.14 pmol/h/1000000 cells
- relative BFC metabolsiation (compared to PHH 0h) ([1]; PHH 12h): 9.941 and 9.524
- BFC metabolisation (pmol/h/1000000cells) ([1]; PHH 12h): 112.17 pmol/h/1000000cells and 107.467 pmol/h/1000000cells and 156.494 pmol/h/1000000cells
- BFC metabolisation ([1]; PHH 12h): 112.17 pmol/h/1000000 cells and 107.467 pmol/h/1000000 cells and 156.494 pmol/h/1000000 cells

Structure (SMILES): CCN(CC)C(=O)/C(C#N)=C/c1cc(O)c(O)c([N+](=O)[O-])c1 [entacapone]
- Resazurin conversion, repeated exposure (Supplementary Figure 7D) ([2]; 10 uM): 105.5 and 90.3 and 90.2 and 88.2 and 71.2 and 75.6
- Resazurin conversion, repeated exposure (Supplementary Figure 7D) ([2]; 30 uM): 115.8 and 62.8 and 93.9 and 99.3 and 81.1 and 63.6
- Resazurin conversion, repeated exposure (Supplementary Figure 7D) ([2]; 50 uM): 82.1 and 69.4 and 93.5 and 81.3 and 74.4 and 55.8
- Resazurin conversion, repeated exposure (Supplementary Figure 7D) ([2]; 100 uM): 49 and 46.9 and 84.4 and 61.2 and 50.7 and 51.6
- Resazurin conversion, repeated exposure (Supplementary Figure 7D) ([2]; 500 uM): 18.2 and 17.1 and 16.8 and 16 and 16.9 and 13.4
- Resazurin conversion, repeated exposure (Supplementary Figure 7D) ([2]; 1000 uM): 8.7 and 10.7 and 12.7 and 12.4 and 7.5
- Resazurin conversion, repeated exposure (Supplementary Figure 7D) ([2]; 2000 uM): 4 and 3.7 and 3.3 and 2.8 and 3
- Resazurin conversion, repeated exposure (Supplementary Figure 7D) ([2]; 4000 uM): 2.3 and 2.9 and 3.3 and 2.8 and 2.6 and 2.4
- Resazurin conversion, repeated exposure (Supplementary Figure 7D) ([3]; HepG2 AAGLY D30, 10 uM): 102.7 and 108.3 and 96.3 and 95.5 and 95.9 and 100.8
- Resazurin conversion, repeated exposure (Supplementary Figure 7D) ([3]; HepG2 AAGLY D30, 30 uM): 105.3 and 123.1 and 95.9 and 95.5 and 94.4 and 98.6
- Resazurin conversion, repeated exposure (Supplementary Figure 7D) ([3]; HepG2 AAGLY D30, 50 uM): 152.4 and 137.5 and 121.1 and 116.5 and 124.4 and 119.5
- Resazurin conversion, repeated exposure (Supplementary Figure 7D) ([3]; HepG2 AAGLY D30, 100 uM): 127.9 and 149.8 and 134.1 and 127 and 120.4 and 132.2
- Resazurin conversion, repeated exposure (Supplementary Figure 7D) ([3]; HepG2 AAGLY D30, 300 uM): 69.6 and 78.3 and 68.3 and 72.6 and 71.7 and 76.3
- Resazurin conversion, repeated exposure (Supplementary Figure 7D) ([3]; HepG2 AAGLY D30, 500 uM): 44.9 and 57 and 46.8 and 54.7 and 52.8 and 66
- Resazurin conversion, repeated exposure (Supplementary Figure 7D) ([3]; HepG2 AAGLY D30, 1000 uM): 37.4 and 37.7 and 35.2 and 41.1 and 43.2 and 46
- Resazurin conversion, repeated exposure (Supplementary Figure 7D) ([3]; HepG2 AAGLY D30, 2000 uM): 19.3 and 22.6 and 21.6 and 20.1 and 20.8
- Resazurin conversion, repeated exposure (Supplementary Figure 7D) ([3]; HepG2 AAGLY D30, 4000 uM): 12.5 and 14.6 and 13 and 12.9 and 13.1 and 20.4
- Resazurin conversion, repeated exposure (Supplementary Figure 7D) ([3]; HepG2 CTL D7, 10 uM): 93.9
- Resazurin conversion, repeated exposure (Supplementary Figure 7D) ([3]; HepG2 CTL D7, 30 uM): 102.5 and 112.8 and 108.6 and 134.8 and 127 and 107.9
- Resazurin conversion, repeated exposure (Supplementary Figure 7D) ([3]; HepG2 CTL D7, 50 uM): 101.5 and 107.8 and 111.6 and 126.8 and 128.3 and 109
- Resazurin conversion, repeated exposure (Supplementary Figure 7D) ([3]; HepG2 CTL D7, 100 uM): 95.8 and 101 and 100.7 and 120.3 and 125.1 and 104.1
- Resazurin conversion, repeated exposure (Supplementary Figure 7D) ([3]; HepG2 CTL D7, 300 uM): 67.5 and 62.9 and 68.7 and 80.5 and 91.5 and 70.1
- Resazurin conversion, repeated exposure (Supplementary Figure 7D) ([3]; HepG2 CTL D7, 500 uM): 36 and 31.8 and 34.4 and 55.7 and 53 and 36.2
- Resazurin conversion, repeated exposure (Supplementary Figure 7D) ([3]; HepG2 CTL D7, 1000 uM): 9.5 and 6.9 and 7.9 and 10.8 and 9.3 and 8.4
- Resazurin conversion, repeated exposure (Supplementary Figure 7D) ([3]; HepG2 CTL D7, 2000 uM): 3.6 and 3.2 and 3.7 and 3.8 and 3.4
- Resazurin conversion, repeated exposure (Supplementary Figure 7D) ([3]; HepG2 CTL D7, 4000 uM): 2.7 and 2 and 2.5 and 2.9 and 3
- Resazurin conversion, repeated exposure (Supplementary Figure 7D) ([4]; HLC AAGLY D40, 10 uM): 72 and 89.5 and 61.6 and 92.2 and 93.5 and 83.6
- Resazurin conversion, repeated exposure (Supplementary Figure 7D) ([4]; HLC AAGLY D40, 30 uM): 103.8 and 101.2 and 95.5 and 67.7 and 80.3 and 90.5
- Resazurin conversion, repeated exposure (Supplementary Figure 7D) ([4]; HLC AAGLY D40, 50 uM): 106.7 and 75.7 and 96.1 and 56 and 97.2 and 93.3
- Resazurin conversion, repeated exposure (Supplementary Figure 7D) ([4]; HLC AAGLY D40, 100 uM): 90.9 and 65.1 and 97.6 and 81.7 and 65.8 and 91.6
- Resazurin conversion, repeated exposure (Supplementary Figure 7D) ([4]; HLC AAGLY D40, 300 uM): 81.3 and 79.9 and 79 and 69.8 and 111.3 and 89.9
- Resazurin conversion, repeated exposure (Supplementary Figure 7D) ([4]; HLC AAGLY D40, 500 uM): 97.3 and 87.8 and 100.8 and 81.9 and 90.2 and 84.4
- Resazurin conversion, repeated exposure (Supplementary Figure 7D) ([4]; HLC AAGLY D40, 1000 uM): 107 and 95.5 and 86.2 and 93 and 108.2 and 101.5
- Resazurin conversion, repeated exposure (Supplementary Figure 7D) ([4]; HLC LDM D40, 10 uM): 80.5 and 101.6 and 104.1 and 93.5 and 79.5 and 109
- Resazurin conversion, repeated exposure (Supplementary Figure 7D) ([4]; HLC LDM D40, 30 uM): 122.3 and 84.7 and 104.1 and 84.4 and 84 and 104
- Resazurin conversion, repeated exposure (Supplementary Figure 7D) ([4]; HLC LDM D40, 50 uM): 80.6 and 88.8 and 112.5 and 118.1 and 65.6 and 98.1
- Resazurin conversion, repeated exposure (Supplementary Figure 7D) ([4]; HLC LDM D40, 100 uM): 89.9 and 104.8 and 77.5 and 95.7 and 95.5 and 115.1
- Resazurin conversion, repeated exposure (Supplementary Figure 7D) ([4]; HLC LDM D40, 300 uM): 108.5 and 82.7 and 104.1 and 95.3 and 63.3 and 100.3
- Resazurin conversion, repeated exposure (Supplementary Figure 7D) ([4]; HLC LDM D40, 500 uM): 94.1 and 111.1 and 84.2 and 118.9 and 108.7 and 108.4
- Resazurin conversion, repeated exposure (Supplementary Figure 7D) ([4]; HLC LDM D40, 1000 uM): 72.7 and 101.3 and 78 and 89.4 and 85.4 and 124.1
- Resazurin conversion, repeated exposure (Supplementary Figure 7D) ([5]; HC6X AAGLY D40, 10 uM): 116.9 and 68.5 and 106.9 and 88.2 and 63 and 119.9
- Resazurin conversion, repeated exposure (Supplementary Figure 7D) ([5]; HC6X AAGLY D40, 30 uM): 103.2 and 75.2 and 84.6 and 107.4 and 73.5 and 104.8
- Resazurin conversion, repeated exposure (Supplementary Figure 7D) ([5]; HC6X AAGLY D40, 50 uM): 71.4 and 61.4 and 89.5 and 66.5 and 69.6 and 76.8
- Resazurin conversion, repeated exposure (Supplementary Figure 7D) ([5]; HC6X AAGLY D40, 100 uM): 43.6 and 55 and 60.5 and 66.1 and 44.9 and 64.9
- Resazurin conversion, repeated exposure (Supplementary Figure 7D) ([5]; HC6X AAGLY D40, 300 uM): 37.1 and 36.3 and 44.1 and 42.3 and 33.5 and 37.5
- Resazurin conversion, repeated exposure (Supplementary Figure 7D) ([5]; HC6X AAGLY D40, 500 uM): 24.4 and 21.6 and 32.3 and 32.9 and 27.4 and 25.1
- Resazurin conversion, repeated exposure (Supplementary Figure 7D) ([5]; HC6X AAGLY D40, 1000 uM): 25.5 and 25.3 and 37.2 and 22.8 and 23.6 and 21
- Resazurin conversion, repeated exposure (Supplementary Figure 7D) ([5]; HC6X AAGLY D40, 2000 uM): 12 and 11.8 and 15.1 and 12.5 and 11.4 and 12.9
- Resazurin conversion, repeated exposure (Supplementary Figure 7D) ([5]; HC6X AAGLY D40 Remove dox, 10 uM): 62.8 and 75.4 and 93.9 and 104.7 and 88.6 and 79.3
- Resazurin conversion, repeated exposure (Supplementary Figure 7D) ([5]; HC6X AAGLY D40 Remove dox, 30 uM): 86.2 and 86.6 and 84.6 and 85 and 82.3
- Resazurin conversion, repeated exposure (Supplementary Figure 7D) ([5]; HC6X AAGLY D40 Remove dox, 100 uM): 87.4 and 81.5 and 70.5 and 95.4 and 102 and 63.6
- Resazurin conversion, repeated exposure (Supplementary Figure 7D) ([5]; HC6X AAGLY D40 Remove dox, 300 uM): 89.2 and 80.7 and 67.2 and 48.2 and 75.7 and 47.5
- Resazurin conversion, repeated exposure (Supplementary Figure 7D) ([5]; HC6X AAGLY D40 Remove dox, 2000 uM): 43.7 and 44 and 38.6 and 66.6 and 63.4 and 64.5
